Measurements reported in patent US4238500A, “Cyclic double hemiacetals of enediol compounds and compositions and methods for preparing and using same” (National Foundation for Cancer Research, priority 1979, dated 1980).

Assays:
guinea pig ileum = test: Effects on pain receptors: twitch height of coaxially stimulated guinea pig ileum; settings: Cavia porcellus, read-out: ED50 (50% reduction in twitch height)
[1] = system: capillary permeability produced by serotonin or histamine; test: Increased capillary permeability by intradermal serotonin or histamine (trypan blue) in rats; type: in vivo; settings: 100 mg/kg i.p. 30 minutes before, serotonin 0.05 μg or histamine 1 μg intradermal
Description: In one series of tests, rats were treated i.v. with trypan blue and then the increased capillary permeability produced by intradermal injection of serotonin (0.05 μg) or histamine (1 μg) was measured.
No effect of methylglyoxal-ascorbic acid compound or L-ascorbic acid could be found in this system.

[2] = system: edema of the rat paw produced by carrageenan; test: Carrageenan-induced edema of the rat paw
Description: In other experiments, edema of the rat paw was produced by intradermal injection of carrageenan (0.1 ml of 1% solution in saline).

viral disease = settings: cited from earlier work
[3] = system: acute myelocytic leukemia; settings: 13 patients with acute myelocytic leukemia; all then-current therapy 13%; cited from earlier work
glyoxalase enzyme system = settings: converted by glyoxalase to D-lactic acid in presence of reduced glutathione; cited from earlier work
[4] = 199 mg/kg i.p. versus indomethacin 3 mg/kg per os

With O=C1O[C@H]([C@@H](O)CO)C(O)=C1O [L-ascorbic acid] the IC50 (guinea pig ileum) was 32 mM, the “effect on increased capillary permeability” value [1] was “No effect” and the “anti-inflammatory activity (rat paw edema)” value ([2]; 199 mg/kg i.p. 60 minutes prior to carrageenan) was “somewhat anti-inflammatory”. The “activity compared with indomethacin” value [2, 4] was “far less active than indomethacin” and the “ratio of effectiveness (indomethacin versus compound)” value [2, 4] was “approximately 200”.
For O=CC(=O)Cc1ccccc1 [benzylglyoxal], the antiviral activity (viral disease) is given as “have antiviral activity”.
For O=CC(=O)C1CCCCC1 [cyclohexylglyoxal], the antiviral activity (viral disease) is given as “have antiviral activity”.
For CC(C=NNC(=N)N)=NNC(=N)N [methylglyoxal bis(guanylhydrazone)], the complete remission frequency [3] is given as 69%.
In the case of CC(=O)C=O [methylglyoxal], the IC50 (guinea pig ileum) is given as 8 mM and the lability in vivo (glyoxalase enzyme system) is given as “extremely labile in vivo”.
